Assays:
[1] = molecular target: T1, M.TaqI-V21G (Thermus aquaticus, UniProt P14385, V21G); experiment: DNA protection assay with M.TaqI variant V21G on phage lambda DNA; assay type: biochemical; details: 1 μg phage lambda DNA, cofactor 300 μM, 60° C. for 4 h, then R.TaqI
T1 construct: made in house
Text: Transfer kinetics of the activated ethyl (—CH2CH3), propyl (—CH2CH2CH3), prop-2-enyl (—CH2CH═CH2), prop-2-ynyl (—CH2C≡CH), but-2-ynyl (—CH2C≡CCH3), pent-2-ynyl (—CH2C≡CCH2CH3) and benzyl group (—CH2C6H5) from cofactors 3-9 by the DNA adenine-N6 methyltransferase M.TaqI and its variant V21 G, the DNA cytosine-C5 methyltransferase M.HhaI and its variant Q82A, the DNA cytosine-N4 methyltransferase M.BcnIB and the DNA cytosine-C5 methyltransferase M.SssI variant Q142A to phage lambda DNA (48502 base pairs) were investigated using a DNA protection assay. This assay makes use of the fact that DNA methyltransferase-catalyzed modifications of nucleobases within the recognition sequences of restriction endonucleases can protect the DNA against fragmentation by these enzymes. […] Unmodified DNA containing 5′-TCGA-3′ recognition sequences is readily fragmentated by R.TaqI. After DNA modification by M.TaqI in the presence of a cofactor with an activated group Z—R modified 5′-TCGA^Z—R-3′ sequences are formed and, as a result, R.TaqI is unable to fragment the modified DNA. Occurrence of fragmentation is then analyzed by agarose gel electrophoresis.
By varying the amounts of DNA methyltransferase, this assay is used to investigate the enzymatic activities of the different DNA methyltransferases with cofactors 3-9 and compare them to the enzymatic activities with the natural cofactor 1. The minimal amount of DNA methyltransferase needed to fully protect 1 μg of phage lambda DNA against restriction endonuclease fragmentation under the given experimental conditions is defined as one enzyme unit (u).
Afterwards a solution (30 μL) containing R.TaqI restriction endonuclease (40 u, MBI Fermentas), bovine serum albumin (0.166 mg/mL) and buffer (16.6 mM Tris hydrochloride, 166 mM sodium chloride, 8.3 mM magnesium chloride, pH 8.0) was added to each dilution and incubation at 60-65° C. was continued for 15 min. Loading buffer (10 μL, 0.25% bromphenol blue, 30% glycerol) was added to each sample, and aliquots (12 μL) were analyzed for the degree of protection by agarose gel (1%) electrophoresis. Parallel control experiments were performed with phage lambda DNA in the absence of M.TaqI and in the presence of M.TaqI (200 ng).
Therefore, the codon for V21 was changed to a codon for glycine by standard PCR mutagenesis (Ho et al., (1989) Gene 77, 51-59) and the correct DNA sequence of the complete gene was verified by DNA sequencing. […] The DNA protection assay with the V21G variant was performed as described for the wild type (Example 3A.1).

[2] = molecular target: T2, M.TaqI (Thermus aquaticus, UniProt P14385); experiment: Modification of adenine-N6 in duplex oligodeoxynucleotide I.II by M.TaqI, nucleoside analysis by HPLC/ESI-MS; assay type: biochemical; details: 37° C. over night, near-stoichiometric enzyme
T2 construct: made in house
T2 sequence (P14385 whole entry): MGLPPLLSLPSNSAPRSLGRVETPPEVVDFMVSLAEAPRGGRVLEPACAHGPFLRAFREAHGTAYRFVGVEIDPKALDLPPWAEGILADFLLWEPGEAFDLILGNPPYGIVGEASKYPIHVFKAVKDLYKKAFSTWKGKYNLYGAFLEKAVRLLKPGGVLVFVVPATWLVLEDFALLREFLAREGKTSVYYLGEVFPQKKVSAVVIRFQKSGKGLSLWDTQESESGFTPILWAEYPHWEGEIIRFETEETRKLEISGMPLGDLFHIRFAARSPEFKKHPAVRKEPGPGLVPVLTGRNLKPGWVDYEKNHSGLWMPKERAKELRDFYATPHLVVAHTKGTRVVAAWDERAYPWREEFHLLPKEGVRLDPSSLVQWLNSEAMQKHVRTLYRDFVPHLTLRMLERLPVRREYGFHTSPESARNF
Text: Transfer of the activated ethyl (CH2CH3), propyl (CH2CH2CH3), prop-2-enyl (CH2CHCH2), prop-2-ynyl group (CH2CCH), but-2-ynyl (CH2CCCH3), pent-2-ynyl (CH2CCCH2CH3) or benzyl group (CH2C6H5) from cofactors 3-9 by the DNA adenine-N6 methyltransferase M.TaqI, the DNA cytosine-C5 methyltransferase M.HhaI variant Q82A or the DNA cytosine-N4 methyltransferase M.BcnIB to DNA was first investigated using short duplex oligodeoxynucleotides as substrates. After enzymatic transfer the duplex oligodeoxynucleotides were enzymatically fragmented and the resulting modified nucleosides were analyzed by reversed-phase HPLC coupled with ESI-MS.
M.TaqI was denatured by heating to 95° C. for 10 min and removed by centrifugation ([…], 2 min). The modified duplex oligodeoxynucleotides I^Z—R-II were desalted by gel filtration (NAP-5 column, Amersham Biosciences, Freiburg, Germany), eluted with water (1 mL) and lyophilized.
The modified duplex oligodeoxynucleotides I^Z—R-II were dissolved in buffer (100 μL, 10 mM Tris hydrochloride, 10 mM magnesium chloride, 1 mM zinc acetate, pH 7.5) containing Nuclease PI (1500 u, Sigma, Taufkirchen, Germany) and calf intestine alkaline phosphatase (30 u, MBI Fermentas, St. Leon-Rot, Germany) and incubated at 37° C. for 4 h. Nucleosides were analyzed by reversed-phase HPLC (Symmetry-C18 5 μm, 100 Å, 250×4.6 mm, equipped with a Symmetry-C18 5 μm, 100 Å, 20×4.6 mm pre-column, Waters, Eschborn, Germany). Compounds were eluted with acetonitrile (5% for 7 min, followed by linear gradients to 6% in 15 min, to 35% in 8 min and to 70% in 2 min) in triethylammonium acetate buffer (10 mM, pH 7.0) at a flow of 1 mL/min and detected at 254 nm.
For HPLC-coupled ESI-MS measurements compounds were eluted with methanol (0% for 3 min, followed by a linear gradient to 100% in 22 min) in ammonium formate buffer (20 mM, pH 3.5). A post-column mobile phase modification (equal co-flow of 96% methanol, 4% formic acid) was used to enhance the detection efficiency of 2′-deoxyadenosine and its derivatives. Mass spectra were recorded in 200-370 m/z range.
The hemimethylated duplex oligodeoxynucleotide I.II (compare Scheme 5, Example 2A) was produced by mixing equal molar amounts of complementary single-stranded oligodeoxynucleotide I (5′-GCCGCTCGATGCCG-3′) (SEQ. ID NO. 1) and II (5′-CGGCATCGA^MeGCGGC-3′, A^Me=N6-methyl-2′-deoxyadenosine) (SEQ ID NO. 2) in water, heating at 85° C. for 5 min and slow cooling to room temperature. […] The solution was heated to 95° C. for 10 min, supplemented with Proteinase K and incubated at 55° C. for 2 h. Hydrolysis products were removed by gel filtration (G-25 column, Amersham Biosciences).
The obtained solution was treated with buffer ( 1/10 volume, 100 mM Tris hydrochlorid, 100 mM magnesium chloride, 10 mM zinc acetate, pH 7.5) containing Nuclease P1 (1.14 u, Sigma, Taufkirchen, Germany) and calf intestine alkaline phosphatase (18 u, MBI Fermentas), incubated at 42° C. for 4 h and passed through a Microcon YM-3 spin column (Amicon). Nucleosides were analyzed by reversed-phase HPLC (Discovery HS C18 75×2.1 mm, 3 μm, equipped with a Supelguard Discovery HS C18 20×2.1 mm, 5 μm, pre-column, Supelco, Germany) coupled with a mass spectrometric detector (HP 1100 series ESI-MS equipped with single quadruple). Compounds were eluted with methanol (0% for 3 min, followed by linear gradients to 20% in 15 min and to 80% in 2 min) in ammonium formate buffer (20 mM, pH 3.5) at a flow of 0.3 mL/min. For on-line mass spectrometric detection post-column mobile phase modification (equal co-flow of 96% methanol, 4% formic acid and 1 mM sodium hydroxide) was used to enhance the detection efficiency of 2′-deoxyadenosine, 2′-deoxycytidine and their derivatives. Mass spectra were recorded in 50-600 m/z range.

T1 sequence (P14385 whole entry V21G): as the sequence (P14385 whole entry) above, with V21G counted along it

Compound	specific activity of M.TaqI-V21G with the cofactor [1] [u/μg]	cofactor function for M.TaqI (transfer of group Z-R to adenine-N6) [2]
CC#CC[S+](CCC(N)C(=O)O)CC1OC(n2cnc3c(N)ncnc32)C(O)C1O (mixture of isomers) [Cofactor 7]	80	functions as a cofactor
CC[S+](CCC(N)C(=O)O)CC1OC(n2cnc3c(N)ncnc32)C(O)C1O (stereo not shown) [Cofactor 3]	5	functions as a cofactor
CCC[S+](CCC(N)C(=O)O)CC1OC(n2cnc3c(N)ncnc32)C(O)C1O (stereo not shown) [Cofactor 4]	< 5	functions as a cofactor
C=CC[S+](CCC(N)C(=O)O)CC1OC(n2cnc3c(N)ncnc32)C(O)C1O (stereo not shown) [Cofactor 5]	640	functions as a cofactor
C#CC[S+](CCC(N)C(=O)O)CC1OC(n2cnc3c(N)ncnc32)C(O)C1O (stereo not shown) [Cofactor 6]	20	functions as a cofactor
CCC#CC[S+](CCC(N)C(=O)O)CC1OC(n2cnc3c(N)ncnc32)C(O)C1O (stereo not shown) [Cofactor 8]	80	functions as a cofactor
NCCCC(=O)NCC#CC[S+](CCC(N)C(=O)O)CC1OC(n2cnc3c(N)ncnc32)C(O)C1O (stereo not shown) [Cofactor 10]	–	functions as a cofactor
